Source: US20260217708A1, “FUSED BENZAZEPINE DERIVATIVES FOR USE IN THE TREATMENT OF CANCER AND EPILEPSY” (UCB BIOPHARMA SRL, priority 2023, published 2026)

Experiments:
[1] = target: T1, system Xc^− (Homo sapiens, UniProt Q9UPY5); assay: [^14C]L-Cystine uptake assay; format: cell-based; set-up: endogenous in cells; host or cells: H4 cells; settings: H4 cells, sodium-free HEPES buffer, 0.5 μM L-[14C]Cystine and 4.5 μM L-Cystine, 1 hour at 37° C.; read-out: pIC50 [^14C] L-Cystine uptake assay (converted)
T1 sequence (Q9UPY5 1-501): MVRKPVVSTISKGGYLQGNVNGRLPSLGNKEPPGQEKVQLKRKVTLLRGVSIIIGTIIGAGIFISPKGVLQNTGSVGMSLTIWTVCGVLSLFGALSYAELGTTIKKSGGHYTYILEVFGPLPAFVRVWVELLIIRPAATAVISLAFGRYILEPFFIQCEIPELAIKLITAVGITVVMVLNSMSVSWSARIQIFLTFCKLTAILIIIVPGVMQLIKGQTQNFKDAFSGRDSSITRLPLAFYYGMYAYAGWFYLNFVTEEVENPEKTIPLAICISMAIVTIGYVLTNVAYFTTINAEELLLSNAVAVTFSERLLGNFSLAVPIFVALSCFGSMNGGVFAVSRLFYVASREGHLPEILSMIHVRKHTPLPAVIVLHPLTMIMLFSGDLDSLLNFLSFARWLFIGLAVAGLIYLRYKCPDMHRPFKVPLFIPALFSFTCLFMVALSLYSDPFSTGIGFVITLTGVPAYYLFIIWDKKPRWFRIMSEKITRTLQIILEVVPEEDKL
T1 sequence (P08195 1-529 partner): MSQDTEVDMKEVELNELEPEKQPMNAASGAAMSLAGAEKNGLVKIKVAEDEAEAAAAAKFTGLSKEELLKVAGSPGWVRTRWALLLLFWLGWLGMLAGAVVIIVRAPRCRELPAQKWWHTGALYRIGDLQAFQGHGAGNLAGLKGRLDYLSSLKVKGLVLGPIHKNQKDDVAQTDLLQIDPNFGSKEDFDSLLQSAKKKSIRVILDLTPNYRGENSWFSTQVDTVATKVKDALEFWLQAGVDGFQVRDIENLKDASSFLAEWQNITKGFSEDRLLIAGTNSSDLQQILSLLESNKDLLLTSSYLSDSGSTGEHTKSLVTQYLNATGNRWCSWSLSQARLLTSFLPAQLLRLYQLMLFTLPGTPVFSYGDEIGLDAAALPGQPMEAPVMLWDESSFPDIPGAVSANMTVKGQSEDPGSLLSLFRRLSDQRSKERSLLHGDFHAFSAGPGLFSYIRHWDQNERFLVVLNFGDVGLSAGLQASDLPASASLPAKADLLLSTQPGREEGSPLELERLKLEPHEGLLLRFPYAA
Procedure, shortened: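 Compound effect is given as pIC50, taken between controls of 1% DMSO and 50 μM Erastin. Human H4 cells were pretreated 15 min with compound in sodium-free buffer, then took up 0.5 μM [14C]cystine with 4.5 μM cold cystine for 1 hour at 37° C, read by scintillation proximity counting.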

[2] = target: T1, system Xc^−; assay: Cystine-induced glutamate release assay; format: cell-based; set-up: endogenous in cells; host or cells: H4 cells; settings: H4 cells, sodium-free HEPES buffer, 50 μM L-Cystine, 2 hours, Amplex Red glutamate readout; for IC50: read-out: pIC50 Cystine-induced glutamate release assay (converted)
Procedure, shortened: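 IC50 (reported as pIC50) normalized to DMSO 1% and Erastin 50 μM controls, from Amplex Red fluorescence of glutamate exported into supernatant. H4 cells were washed into sodium-free buffer to exclude EAAT transport, then given compound with 50 μM L-cystine for 2 h in the incubator.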

Row | Structure (SMILES) | IC50 [1] | IC50 [2] | pIC50 Cystine-induced glutamate release assay [2]
1 | Cc1cc2c(cc1C)N(CC(=O)Nc1ccc(C(F)(F)F)cc1)C(=O)Cc1ncccc1-2 [#23, 2-(9,10-dimethyl-6-oxo-5H-pyrido[2,3-d][1]benzazepin-7-yl)-N-[4-(trifluoromethyl)phenyl]acetamide] | 15.8 to 39.8 nM | 39.8 to 100 nM | 
2 | O=C(CN1C(=O)Cc2ncccc2-c2c1cc(Cl)c(F)c2Cl)Nc1ccc(C(F)(F)F)cc1 [#52, 2-(9,11-dichloro-10-fluoro-6-oxo-5H-pyrido[2,3-d][1]benz-azepin-7-yl)-N-[4-(trifluoromethyl)phen-yl]acetamide] | 100 to 501 nM | 100 to 501 nM | 
3 | COc1nc(OC(F)F)cc2c1-c1cccnc1C(C)C(=O)N2CC(=O)Nc1ccc(C(F)F)cc1 (single isomer, unassigned) [#330, 2-[5-(difluoromethoxy)-3-methoxy-10-methyl-9-oxo-4,8,12-triazatricyclo[9.4.0.0^2,7]pentadeca-1(15),2(7),3,5,11,13-hexaen-8-yl]-N-[4-(difluoromethyl)phenyl]acetamide] | < 15.8 nM |  | C (about 7.40 < pIC50 ≤ about 7.80)
4 | Cc1cc2c(c(F)n1)-c1cccnc1[C@@H](C)C(=O)N2CC(=O)Nc1ccc2cnc(F)cc2c1 (single isomer, unassigned) [#239] | 15.8 to 39.8 nM | 15.8 to 39.8 nM | 
5 | COc1nc(C)cc2c1-c1cnnn1CC(=O)N2CC(=O)Nc1ccc(C(F)(F)F)cc1 [#74, 2-(14-methoxy-12-methyl-8-oxo-4,5,6,9,13-pentazatricyclo[8.4.0.0^2,6]tetradeca-1(1),2,4,11,13-pentaen-9-yl)-N-[4-(trifluoromethyl)phenyl]acetamide] | 100 to 501 nM | 100 to 501 nM | 
6 | O=C(CN1C(=O)Cn2nccc2-c2cnc(Cl)cc21)Nc1ccc(C(F)(F)F)cc1 [#37, 2-(12-chloro-8-oxo-5,6,9,13-tetrazatricyclo[8.4.0.0^2,6]tetradeca-1(10),2,4,11,13-pentaen-9-yl)-N-[4-(trifluoromethyl)phenyl]acetamide] | 100 to 501 nM | 100 to 501 nM | 
7 | Cc1cc2c(c(Cl)n1)-c1cc(F)cnc1C(C)C(=O)N2CC(=O)Nc1ccc(C(C)(F)F)cc1 (single isomer, unassigned) [#423, 2-(3-chloro-14-fluoro-5,10-dimethyl-9-oxo-4,8,12-triazatricyclo[9.4.0.0^2,7]pentadeca-1(11),2,4,6,12,14-hexaen-8-yl)-N-[4-(1,1-difluoroethyl)phenyl]acetamide] | < 15.8 nM | < 15.8 nM | 
8 | Cc1cc2c(c(Cl)n1)-c1cccnc1C(C)C(=O)N2CC(=O)Nc1ccc(C(F)F)nc1 (single isomer, unassigned) [#230, Enantiomer (10R) or (10S) of 2-[3-chloro-5,10-dimethyl-9-oxo-4,8,12-triazatricyclo[9.4.0.0^2,7]pentadeca-1(11),2(7),3,5,12,14-hexaen-8-yl]-N-[6-(difluoromethyl)-3-pyridyl]acetamide] | 15.8 to 39.8 nM | 15.8 to 39.8 nM | 
9 | COc1nc(OC(F)F)cc2c1-c1cccnc1C(C)C(=O)N2CC(=O)Nc1ccc(C(F)F)cc1 (single isomer, unassigned) [#329, 2-[5-(difluoromethoxy)-3-methoxy-10-methyl-9-oxo-4,8,12-triazatricyclo[9.4.0.0^2,7]pentadeca-1(15),2(7),3,5,11,13-hexaen-8-yl]-N-[4-(difluoromethyl)phenyl]acetamide] | 15.8 to 39.8 nM | 15.8 to 39.8 nM | 
10 | Cc1cc2c(cc1C)N(CC(=O)Nc1ccc(C(F)(F)F)cc1)C(=O)Cc1cncnc1-2 [#9, 2-(9,10-dimethyl-6-oxo-5H-pyrimido[5,4-d][1]benzazepin-7-yl)-N-[4-(trifluoromethyl)phenyl]acetamide] | 39.8 to 100 nM | 100 to 501 nM | 
11 | C[C@@H]1C(=O)N(CC(=O)Nc2ccc(C(F)F)cc2)c2cc(N3CC[C@@H](F)C3)nc(F)c2-c2cccnc21 (single isomer, unassigned) [#276, N-[4-(difluoromethyl)phenyl]-2-[3-fluoro-5-[3-fluoropyrrolidin-1-yl]-10-methyl-9-oxo-4,8,12-triazatricyclo[9.4.0.0^2,7]pentadeca-1(15),2,4,6,11,13-hexaen-8-yl]acetamide] | < 15.8 nM | < 15.8 nM | 
12 | Cc1cc2c(n(C)c1=O)-c1ccccc1CC(=O)N2CC(=O)Nc1ccc(Cl)c(F)c1 [#350, N-(4-chloro-3-fluoro-phenyl)-2-(1,3-dimethyl-2,6-dioxo-7H-pyrido[3,2-d][3]benzazepin-5-yl)acetamide] | 15.8 to 39.8 nM | 15.8 to 39.8 nM | 
13 | CCn1c(C)cc2c(c1=O)-c1cccnc1[C@@H](C)C(=O)N2CC(=O)Nc1ccc(Cl)c(F)c1 (single isomer, unassigned) [#176, Enantiomer (10R) or (10S) of N-(4-chloro-3-fluoro-phenyl)-2-[4-ethyl-5,10-dimethyl-3,9-dioxo-4,8,12-triazatricyclo[9.4.0.0^2,7]pentadeca-1(15),2(7),5,11,13-pentaen-8-yl]acetamide] | < 15.8 nM | < 15.8 nM | 
14 | O=C(CN1C(=O)Cc2ncccc2-c2c1ccnc2Cl)Nc1ccc(C(F)(F)F)cc1 [#53, 2-(3-chloro-9-oxo-4,8,12-triazatricyclo [9.4.0.0^2,7]pentadeca-1(11),2(7),3,5,12,14-hexaen-8-yl)-N-[4-(trifluoromethyl)phen-yl]acetamide] | 39.8 to 100 nM | 100 to 501 nM | 
15 | CO[C@H]1C(=O)N(CC(=O)Nc2ccc(C(F)(F)F)cc2)c2cc(C)nc(Cl)c2-c2ccccc21 (single isomer, unassigned) [#199, Entnaiomer (7R) or (7S) of 2-[1-chloro-7-methoxy-3-methyl-6-oxo-7H-pyrido[4,3-d][3]benzazepin-5-yl]-N-[4-(trifluoromethyl)phenyl]acetamide] | < 15.8 nM | 15.8 to 39.8 nM | 
16 | Cc1cc2c(c(F)n1)-c1cccnc1C(C)(F)C(=O)N2CC(=O)Nc1ccc(C(F)(F)F)cc1 (centres unmarked) [#89, 2-(3,10-difluoro-5,10-dimethyl-9-oxo-4,8,12-triazatricyclo[9.4.0.0^2,7]pentadeca-1(11),2(7),3,5,12,14-hexaen-8-yl)-N-[4-(trifluoromethyl)phenyl]acetamide] | 100 to 501 nM | 39.8 to 100 nM | 
17 | COc1ccc2c(c1)N(CC(=O)Nc1ccc(Cl)c(F)c1)C(=O)C(C)c1ncccc1-2 (centres unmarked) [#306, N-(4-chloro-3-fluoro-phenyl)-2-(9-methoxy-5-methyl-6-oxo-5H-pyrido[2,3-d][1]benzazepin-7-yl)acetamide] | 39.8 to 100 nM | 15.8 to 39.8 nM | 
18 | Cc1cc2c(c(Cl)n1)-c1cncnc1C(C)C(=O)N2CC(=O)Nc1ccc(C(F)(F)F)cc1 (centres unmarked) [#163, 2-(15-chloro-8,13-dimethyl-9-oxo-4,6,10,14-tetrazatricyclo[9.4.0.0^2,7]pentadeca-1(11),2(7),3,5,12,14-hexaen-10-yl)-N-[4-(trifluoromethyl)phenyl]acetamide] | 15.8 to 39.8 nM | 15.8 to 39.8 nM | 
19 | CC1C(=O)N(CC(=O)Nc2ccc(Cl)c(F)c2)c2ccnc(OC(F)F)c2-c2cccnc21 (centres unmarked) [#412, N-(4-chloro-3-fluoro-phenyl)-2-[3-(difluoromethoxy)-10-methyl-9-oxo-4,8,12-triazatricyclo[9.4.0.0^2,7]pentadeca-1(15),2,4,6,11,13-hexaen-8-yl]acetamide] | 39.8 to 100 nM | 39.8 to 100 nM | 
